Measurements reported in patent US10501479B2, “Benzenesulfonyl-asymmetric ureas and medical uses thereof” (HELSINN HEALTHCARE SA, priority 2016, dated 2019).

Tests used:
[1] = target: T1, recombinant human ghrelin receptor (HEK293/GRLN) (Homo sapiens, UniProt Q92847); experiment: Ghrelin inverse agonist potency (EC50) with IP-1 (IP-One HTRF) assay; assay type: cell-based; settings: IP-1 assay, HEK293/GRLN; read-out: Activity EC50 (ghrelin inverse agonist potency)
T1 construct: expressed in transfected cells
T1 sequence (Q92847 whole entry): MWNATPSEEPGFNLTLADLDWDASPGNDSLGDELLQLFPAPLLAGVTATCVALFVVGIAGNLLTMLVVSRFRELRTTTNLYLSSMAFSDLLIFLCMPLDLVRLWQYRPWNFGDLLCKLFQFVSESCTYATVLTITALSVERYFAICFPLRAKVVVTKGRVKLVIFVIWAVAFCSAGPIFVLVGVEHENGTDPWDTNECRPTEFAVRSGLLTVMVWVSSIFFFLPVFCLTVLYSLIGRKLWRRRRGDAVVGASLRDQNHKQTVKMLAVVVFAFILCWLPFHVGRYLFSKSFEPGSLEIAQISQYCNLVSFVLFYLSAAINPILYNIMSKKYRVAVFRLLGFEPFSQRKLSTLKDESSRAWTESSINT
Outline: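 HEK293/GRLN cells were seeded 18-22 hours before the test, then exposed to compound in stimulation buffer for 1 hour at 37° C, 5% CO2. IP-1 was detected by IP-One HTRF (IP1-d2 plus Tb-cryptate, 1 hour RT), reading 620 and 665 nm; the inverse agonist EC50 was derived from this.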

[2] = target: T2, GHSR-1a (HEK293/GHSR1a cell line) (Homo sapiens, UniProt Q92847); experiment: Ghrelin agonist potency (EC50) with calcium FLIPR assay; assay type: cell-based; settings: HEK293/GHSR1a, read-out: Activity EC50/EMax: EC50 (ghrelin agonist potency)
T2 construct: expressed in transfected cells; host or cells: HEK293/GHSR1a cell line
T2 sequence (Q92847 whole entry): as above
Outline: (§1)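 HEK293/GHSR1a cells, seeded 24 hr ahead and loaded with calcium dye 30-60 min, were read by FLIPR fluorescence for 2 min after addition at t=20 sec. Agonism: compound alone, EC50 from dose-response. Antagonism: compound plus 10 nM ghrelin, IC50 from reduction of ghrelin response.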

[3] = target: T2, GHSR-1a (HEK293/GHSR1a cell line); experiment: Ghrelin antagonist potency (IC50) with calcium FLIPR assay, ghrelin 10 nM; assay type: cell-based; settings: HEK293/GHSR1a, ghrelin 10 nM, read-out: Activity IC50 (ghrelin antagonist potency)
Outline: as §1

[4] = Metabolic stability in human liver microsomes; assay type: in vitro ADME
Outline: (§2)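 Compound incubated with human, dog, rat or mouse liver microsomes in 100 mM potassium phosphate, pH 7.4, at 37 °C. Reaction started with an NADPH regenerating system. Samples quenched at 0, 10, 30 and 90 min, and remaining compound measured by LC-MS/MS.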

[5] = Metabolic stability in mouse liver microsomes; assay type: in vitro ADME
Outline: as §2

Compound | EC50 [1] | EC50 [2] | IC50 [3] | Metabolic Stability Study H = human [4] | Metabolic Stability Study M = mouse [5]
CC(NC(=O)Nc1ccc(S(=O)(=O)Cc2cc3c(s2)CCN(C)C3)cc1)c1cccc(Cl)c1Cl (stereo not drawn) [H1359, 1-(1-(2,3-dichlorophenyl)ethyl)-3-(4-(((5-methyl-4,5,6,7-tetrahydrothieno[3,2-c]pyridin-2-yl)methyl)sulfonyl)phenyl)urea] | 4 nM | > 30000 nM | 1.5 nM | H = 108.6 M = 108.6 R = not reported D = not reported μL/min/mg | H = 108.6 M = 108.6 R = not reported D = not reported μL/min/mg
C[C@@H](NC(=O)Nc1ccc(S(=O)(=O)Cc2ccc3c(c2F)CN(C)C3)cc1)c1ccccc1 [H1363, (R)-1-(4-(((4-fluoro-2-methylisoindolin-5-yl)methyl)sulfonyl)phenyl)-3-(1-phenylethyl)urea] | 3.15 nM | > 30000 nM | 8.4 nM | 140.1 µL/min/mg | 335.3 µL/min/mg
C[C@@H](NC(=O)Nc1ccc(S(=O)(=O)Nc2ccnc(N)n2)cc1)c1cccc(Cl)c1Cl [H1364, (R)-N-(2-aminopyrimidin-4-yl)-4-(3-(1-(2,3-dichlorophenyl)ethyl)ureido) benzenesulfonamide] | 130 nM | > 30000 nM | 29.6 nM | < 10 µL/min/mg | 36 µL/min/mg
CC(NC(=O)Nc1ccc(S(=O)(=O)Cc2cc3c(s2)CN(C)CC3)cc1)c1cccc(Cl)c1Cl (stereo not drawn) [H1384, 1-(1-(2,3-dichlorophenyl)ethyl)-3-(4-(((6-methyl-4,5,6,7-tetrahydrothieno[2,3-c]pyridin-2-yl)methyl)sulfonyl)phenyl)urea] | 2.4 nM | > 30000 nM | 5.95 nM | 95.1 µL/min/mg | 165.1 µL/min/mg
CC(NC(=O)Nc1ccc(S(=O)(=O)Cc2cc3c(cc2F)CNCC3)cc1)c1cccc(Cl)c1Cl (stereo not drawn) [H1385, 1-(1-(2,3-dichlorophenyl)ethyl)-3-(4-(((7-fluoro-1,2,3,4-tetrahydroisoquinolin-6-yl)methyl)sulfonyl)phenyl)urea] | 6.5 nM | > 30000 nM | 3.98 nM | H = <10 M = <10 μL/min/mg | H = <10 M = <10 μL/min/mg
COc1cc(S(=O)(=O)Cc2ccc3c(c2)CCNC3)ccc1NC(=O)NC(C)c1ccccc1 (stereo not drawn) [H1386, 1-(2-methoxy-4-(((1,2,3,4-tetrahydroisoquinolin-6-yl)methyl)sulfonyl)phenyl)-3-(1-phenylethyl)urea] | 11.7 nM | > 30000 nM | 21.2 nM | < 10 µL/min/mg | 11 µL/min/mg
COc1cc(S(=O)(=O)Cc2ccc3c(c2)CCN(C)C3)ccc1NC(=O)NC(C)c1ccccc1 (stereo not drawn) [H1387, 1-(2-methoxy-4-(((2-methyl-1,2,3,4-tetrahydroisoquinolin-6-yl)methyl)sulfonyl)phenyl)-3-(1-phenylethyl)urea] | 3.7 nM | > 30000 nM | 7.4 nM | 86.7 µL/min/mg | 167.5 µL/min/mg
CC(NC(=O)Nc1ccc(S(=O)(=O)Cc2ccc3c(c2)CNC3)cc1F)c1ccccc1F.Cl (stereo not drawn) [H1389, 1-(2-fluoro-4-((isoindolin-5-ylmethyl)sulfonyl)phenyl)-3-(1-(2-fluorophenyl)ethyl)urea] | 15.1 nM | > 30000 nM | 27.6 nM | 21.3 µL/min/mg | 21.2 µL/min/mg
COc1ccccc1C(C)NC(=O)Nc1ccc(S(=O)(=O)Cc2ccc3c(c2)CNC3)cc1F.Cl (stereo not drawn) [H1390, 1-(2-fluoro-4-((isoindolin-5-ylmethyl)sulfonyl)phenyl)-3-(1-(2-methoxyphenyl)ethyl)urea] | 10.7 nM | > 30000 nM | 36.4 nM | 34.6 µL/min/mg | 55.9 µL/min/mg
CC(NC(=O)Nc1ccc(S(=O)(=O)Cc2ccc3c(c2)CNC3)cc1)c1c(F)cccc1F (stereo not drawn) [H1391, 1-(1-(2,6-difluorophenyl)ethyl)-3-(4-((isoindolin-5-ylmethyl)sulfonyl)phenyl)urea] | 7.2 nM | > 30000 nM | 10.5 nM | 14.8 µL/min/mg | 11.8 µL/min/mg
COc1cc(S(=O)(=O)Cc2ccc3c(c2)CNC3)ccc1NC(=O)NC(C)c1ccccc1OC (stereo not drawn) [H1393, 1-(4-((isoindolin-5-ylmethyl)sulfonyl)-2-methoxyphenyl)-3-(1-(2-methoxyphenyl)ethyl)urea] | 3.73 nM | > 30000 nM | 9.2 nM | 55.5 µL/min/mg | 55.1 µL/min/mg
C[C@@H](NC(=O)Nc1ccc(S(=O)(=O)Cc2cc(F)c3c(c2)CNC3)cc1)c1ccccc1.Cl [H1394, (R)-1-(4-(((7-fluoroisoindolin-5-yl)methyl)sulfonyl)phenyl)-3-(1-phenylethyl)urea] | 7.8 nM | > 30000 nM | 51.9 nM | 67.4 µL/min/mg | 182.5 µL/min/mg
C[C@@H](NC(=O)Nc1ccc(S(=O)(=O)Cc2ccc3c(c2F)CNC3)cc1)c1ccccc1 [H1396, (R)-1-(4-(((4-fluoroisoindolin-5-yl)methyl)sulfonyl)phenyl)-3-(1-phenylethyl)urea] | 1.3 nM | > 30000 nM | 10.8 nM | 62.5 µL/min/mg | 330.4 µL/min/mg
CC1c2ccccc2CCN1C(=O)Nc1ccc(S(=O)(=O)Cc2ccc3c(c2)CNC3)cc1 (stereo not drawn) [H1397, N-(4-((isoindolin-5-ylmethyl)sulfonyl)phenyl)-1-methyl-3,4-dihydroisoquinoline-2(1H)-carboxamide] | 67.8 nM | > 30000 nM | 1100 nM | 35.1 µL/min/mg | 32 µL/min/mg
COc1cc(S(=O)(=O)Cc2ccc3c(c2)CNC3)ccc1NC(=O)N(C)C(C)c1ccccc1 (stereo not drawn) [H1398, 3-(4-((isoindolin-5-ylmethyl)sulfonyl)-2-methoxyphenyl)-1-methyl-1-(1-phenylethyl)urea] | 62.6 nM | > 30000 nM | 629 nM | 52.9 µL/min/mg | 80.5 µL/min/mg
CC1Cc2cc(CS(=O)(=O)c3ccc(NC(=O)NC(C)c4ccccc4)cc3)ccc2CN1 (stereo not drawn) [H1406, 1-(4-(((3-methyl-1,2,3,4-tetrahydroisoquinolin-6-yl)methyl)sulfonyl)phenyl)-3-(1-phenylethyl)urea] | 7.92 nM | > 30000 nM | 85.5 nM | 15 µL/min/mg | 22.2 µL/min/mg
CC(NC(=O)Nc1ccc(S(=O)(=O)Cc2ccc3c(c2)CC(C)N(C)C3)cc1)c1ccccc1 (stereo not drawn) [H1407, 1-(4-(((2,3-dimethyl-1,2,3,4-tetrahydroisoquinolin-6-yl)methyl)sulfonyl)phenyl)-3-(1-phenylethyl)urea] | 1.45 nM | > 30000 nM | 12.7 nM | 144.4 µL/min/mg | 84.1 µL/min/mg
CC(NC(=O)Nc1ccc(S(=O)(=O)Cc2ccc3c(c2F)CNC3)cc1)c1c(F)cccc1F (stereo not drawn) [H1410] | 13.2 nM | > 30000 nM | 32 nM | 73.3 µL/min/mg | 358.6 µL/min/mg
COc1cc(S(=O)(=O)Cc2ccc3c(c2)CNC3)ccc1NC(=O)NC(C)c1c(F)cccc1F (stereo not drawn) [H1412, 1-(1-(2,6-difluorophenyl)ethyl)-3-(4-((isoindolin-5-ylmethyl)sulfonyl)-2-methoxyphenyl)urea] | 4.3 nM | > 30000 nM | 15.7 nM | 22.5 µL/min/mg | 122.4 µL/min/mg
COc1cc(S(=O)(=O)Cc2ccc3c(c2)CN(C)C3)ccc1NC(=O)NC(C)c1cccc2ccccc12 (stereo not drawn) [H1425, 1-(2-methoxy-4-(((2-methylisoindolin-5-yl)methyl)sulfonyl)phenyl)-3-(1-(naphthalen-1-yl)ethyl)urea] | 1.8 nM | > 30000 nM | 8.1 nM | 310.0 µL/min/mg | 141.5 µL/min/mg
COc1cc(S(=O)(=O)Cc2ccc3c(c2)CN(C)C3)ccc1NC(=O)NC(C)c1ccccc1F (stereo not drawn) [H1426, 1-(1-(2-fluorophenyl)ethyl)-3-(2-methoxy-4-(((2-methylisoindolin-5-yl)methyl)sulfonyl)phenyl)urea] | 3.4 nM | > 30000 nM | 52.9 nM | 77.3 µL/min/mg | 80.6 µL/min/mg
